Results: PMC11434026, “Development and Validation of an LC-MS/MS Assay for the Quantitation of MO-OH-Nap Tropolone in Mouse Plasma: Application to In Vitro and In Vivo Pharmacokinetic Studies” (Molecules, 2024)
Where “and” joins values, the source holds several entries; their conditions need not be identical. Equal values may be shown once.

Assays:
[1] = In vitro metabolic stability in mouse liver microsomes; assay type: in vitro ADME; conditions: MLM
Procedure: Metabolic stability was assessed using mouse, rat, and human liver microsomes (XenoTech, LLC, Lenexa, KS, USA) for phase I metabolism. Briefly, A reaction solution was prepared by mixing […] of PBS (100 mM, pH 7.4), 25 µL of microsomal protein (20 mg/mL), MgCl2 (5 µL; 10 mM), and 50 µL of NADPH (2 mM). The final volume (0.5 mL) was pre-incubated for 10 min in a 37 °C water bath at 60 rpm. An aliquot of MO-OH-Nap (2 µL from 1 µg/mL stock) was spiked into the above solution to initiate the reaction. Aliquots of (50 µL) were collected at time intervals (0, 5, 15, 20, 30, 45, and 60 min) and quenched with 300 µL of ACN, […]. Afterwards, 10 µL of IS stock (1.0 µg/mL) was spiked in each sample then vortexed (5 min) and centrifuged at 10,800 rpm (13,000× g) for 15 min. Samples were vortexed and centrifuged at 10,800 rpm (13,000× g) for 15 min, the supernatant was collected and transferred to an HPLC vial and 10 µL were injected into the LC-MS/MS system. Testosterone and diclofenac were used as positive and negative controls to ensure that liver microsomes and incubation conditions were appropriate for conducting metabolism studies.

[2] = Thermodynamic aqueous solubility in PBS; assay type: physicochemical
Procedure: After completion of incubation, the microcentrifuge tube was centrifuged at 10,000× g for 10 min. The supernatant (100 μL) was mixed with an equal volume of ACN and centrifuged again at 10,000× g for 10 min. The supernatant was further diluted 80× times with mobile phase and transferred to autosampler vials and analyzed by LC-MS/MS.

[3] = Blood to plasma ratio (B/P) in fresh mouse blood; assay type: in vitro ADME; conditions: 1 µM, 37 °C
Procedure: Fresh mouse blood (800 µL) was incubated in a water bath maintained at 37 °C for 10 min prior to drug spiking. Blood was spiked with the drug at concentrations of 1 µM to maintain organic content < 1%. Aliquots of 50 µL were collected at different time points (0, 30, and 60 min) for blood analysis as well an additional sample of 120 µL was collected into a micro-centrifuge tube and centrifuged at 4000× g for 10 min at 4 °C to separate 50 µL plasma for analysis. For matrix match and calibration, blank plasma of 50 µL was added to the collected blood aliquot, and 50 µL of blank blood was added to the extract of 50 µL plasma. The whole blood and plasma samples were further processed by PPT as described above. The analyte peak area ratios were used to calculate the (B/P) ratio using Equation (5). (5) (B/P) ratio=Blood Concentration /Plasma Concentration

O=c1c(O)ccccc1-c1ccc2ccccc2c1 [MO-OH-Nap, MO-OH-Nap tropolone]
metabolic depletion ([1]; NADPH, 60 min): < 15% | parent drug remaining ([1]; all time points to 60 min): > 95% | solubility class per USP ([2]; PBS pH 7.4): partially soluble and very slightly soluble | solubility at 24 h ([2]; phosphate buffered saline (PBS), PBS pH 7.4, 24 h): 20.2 µg/mL and 80.1 µM | B/P Ratio ([3]; 0 min): 1.1 ± 0.1 | B/P Ratio ([3]; 30 min): 0.9 ± 0.2 | B/P Ratio ([3]; 60 min): 1.0 ± 0.12
